Where a name gives a salt, the structure may show the parent alone.
Assays:
[1] = test system: spontaneously hypertensive stroke-prone rats (SHRSP); experiment: Passive avoidance response test with SHRSP (attention deficit/hyperactivity disorder model); assay type: in vivo, rat; details: for Minimum effective dose: 30 min before test; for Effect on cumulative entry latency of SHRSP: sum of entry latency of 2nd to 5th trial, compared with solvent group
Method: Verification of the therapeutic effect on attention deficit/hyperactivity disorder was carried out using spontaneously hypertensive stroke-prone rats (SHRSP). […] The method of Fox et al. (Fox, G. B. et al., Behay. Brain. Res., 131: 151-161, 2002) was partially modified, and the drug action on attention deficit/hyperactivity disorder was verified using a passive avoidance response test with SHRSP. That is, a solvent (vehicle), or dilutions prepared by diluting methylphenidate, compound (1), compound (2), compound (3), compound (4), and compound (5), with a solvent at multiple concentrations were administered to the rats in each group. Methylphenidate was subcutaneously administered, and compounds (1) to (5) were orally administered. As the solvent, physiological saline was used for methylphenidate and a 0.5% aqueous solution of methylcellulose was used for compounds (1) to (5). After 30 minutes of each drug administration, rats were placed in the bright room of the passive avoidance response measurement apparatus, and the time required for the rat to enter the dark room (entry latency) was measured. The longest time for measurement was 180 seconds. When rats entered in the dark room, a very weak electric current was forced to flow from a foot grid in the dark room. This trial was repeated five times, and the sum of the entry latency from 2nd time to 5th time (cumulative entry latency) was adopted as an indicator of the therapeutic effect on attention deficit/hyperactivity disorder. The test of significance difference was carried out between the solvent administered group and the drug administered groups, using Dunnett's test.

BEC1 potassium channel [2] = target: T1, BEC1 potassium channel (Homo sapiens, UniProt Q9ULD8); experiment: BEC1 inhibitory activity by 86Rb ion release from BEC1 expressing cells; assay type: cell-based; design: expressed in transfected cells; details: 86Rb release, BEC1 stably expressing CHO (dhfr-deficient) cells, 100 mM KCl stimulation; read-out: BEC1 Inhibittory Activity IC50
T1 sequence (Q9ULD8 1-1083): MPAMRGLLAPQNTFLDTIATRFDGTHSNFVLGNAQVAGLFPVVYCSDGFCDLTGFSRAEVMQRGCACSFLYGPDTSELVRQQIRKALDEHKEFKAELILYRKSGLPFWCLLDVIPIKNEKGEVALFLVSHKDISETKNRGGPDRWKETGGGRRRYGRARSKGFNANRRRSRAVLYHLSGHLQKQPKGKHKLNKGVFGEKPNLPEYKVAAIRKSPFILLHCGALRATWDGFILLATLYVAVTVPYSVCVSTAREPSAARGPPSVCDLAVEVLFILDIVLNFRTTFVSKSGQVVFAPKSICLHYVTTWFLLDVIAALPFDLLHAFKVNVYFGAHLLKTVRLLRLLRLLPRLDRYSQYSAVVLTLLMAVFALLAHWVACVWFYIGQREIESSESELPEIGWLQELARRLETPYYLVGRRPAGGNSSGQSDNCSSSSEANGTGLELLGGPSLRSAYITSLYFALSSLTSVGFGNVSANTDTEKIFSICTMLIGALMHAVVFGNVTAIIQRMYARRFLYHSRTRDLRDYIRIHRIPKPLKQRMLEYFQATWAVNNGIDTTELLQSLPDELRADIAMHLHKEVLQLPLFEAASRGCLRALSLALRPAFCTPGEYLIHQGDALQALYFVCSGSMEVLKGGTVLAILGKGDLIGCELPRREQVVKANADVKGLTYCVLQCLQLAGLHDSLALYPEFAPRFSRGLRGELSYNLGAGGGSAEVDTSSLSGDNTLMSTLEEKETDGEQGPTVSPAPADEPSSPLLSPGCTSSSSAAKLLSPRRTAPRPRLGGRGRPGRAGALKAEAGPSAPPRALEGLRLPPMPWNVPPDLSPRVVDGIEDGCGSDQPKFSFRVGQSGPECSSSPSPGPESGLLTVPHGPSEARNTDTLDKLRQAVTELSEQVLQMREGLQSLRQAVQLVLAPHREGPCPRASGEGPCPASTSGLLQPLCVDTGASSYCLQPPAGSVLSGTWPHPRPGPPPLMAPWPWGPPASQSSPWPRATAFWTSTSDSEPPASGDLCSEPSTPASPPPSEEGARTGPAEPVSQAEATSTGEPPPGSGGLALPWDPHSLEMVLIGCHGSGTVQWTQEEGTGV
Method: Method for measuring BEC1 inhibitory activity of compound utilizing 86Rb ion release amount as indicator
The channel activity of BEC1 was measured according to the method described in U.S. Pat. No. 6,326,168 utilizing the release of the ions of radioactive isotope 86Rb from BEC1 expressing cells as an indicator. Specifically, when BEC1 expressing cells which had taken in 86Rb ions were stimulated with 100 mM KCl, the radioactivity released from the cells was designated as the channel activity of BEC1. 86Rb ions were incorporated into cells by culturing (3 hours, 37° C.) BEC1 stably expressing cells in the presence of 86RbCl (0.5 μCi/ml), and the unincorporated 86Rb ions were removed by washing the cells three times with HEPES buffered physiological saline (pH 7.4, 2.5 mM KCl). […]
The Cherenkov radioactivities of the extracellular fluid and the cell lysate were respectively measured, and the sum was designated as the total radioactivity. The release amount of 86Rb ions was expressed as the percentage of the radioactivity of the extracellular fluid to the total radiation activity. […] The inhibitory action of the compound was indicated as the IC50 value determined from the inhibition % (that is, (control value—test value)×100/(control value—blank value)). […]

BEC1 potassium channel [3] = target: T1, BEC1 potassium channel; details: background statement; cited from earlier work
[4] = oral, smallest dose giving significantly longer cumulative entry latency than solvent group (Dunnett's test)

| Structure (SMILES) | Minimum effective dose [1, 4] [mg/kg p.o.] | Effect on cumulative entry latency of SHRSP [1] | other results |
| --- | --- | --- | --- |
| Fc1ccc(Nc2nc(NCc3ncccn3)nc(Nc3ccc(F)cc3)n2)cc1 (as salt: HCl) [(2), N,N′-bis(4-fluorophenyl)-N″-(pyrimidin-2-ylmethyl)-1,3,5-triazine-2,4,6-triamine] |  |  | melting point: 183 to 186 °C |
| Fc1ccc(Nc2nc(NCc3ncccn3)nc(Nc3ccc(F)cc3)n2)cc1 [(2), N,N′-bis(4-fluorophenyl)-N″-(pyrimidin-2-ylmethyl)-1,3,5-triazine-2,4,6-triamine] | 0.03 | prolonged the cumulative entry latency |  |
| COc1ccc(Nc2nc(NCc3ncccn3)nc(Nc3ccc(F)cc3)n2)cc1 [(3), N-(4-fluorophenyl)-N′-(4-methoxyphenyl)-N″-(pyrimidin-2-ylmethyl)-1,3,5-triazine-2,4,6-triamine] | 0.3 | prolonged the cumulative entry latency |  |
| Fc1ccc(Nc2nc(NCc3ccncn3)nc(Nc3ccc(F)cc3)n2)cc1 [(4), N,N′-bis(4-fluorophenyl)-N″-(pyrimidin-4-ylmethyl)-1,3,5-triazine-2,4,6-triamine] | 0.03 | prolonged the cumulative entry latency |  |
| Cl.Nc1nc(Nc2ccc(F)cc2)nc(N(Cc2ccnc(F)c2)c2ccccc2)n1 [(5), N-(4-fluorophenyl)-N′-[(2-fluoro-4-pyridyl)methyl]-N′-phenyl-1,3,5-triazine-2,4,6-triamine hydrochloride] | 3 | prolonged the cumulative entry latency | IC50 (BEC1 potassium channel [2]): 0.085 µM |
| Fc1ccc(Nc2nc(NCc3ncccn3)nc(Nc3ccccc3)n2)cc1 [Compound (1), N-(4-fluorophenyl)-N′-phenyl-N″-(pyrimidin-2-ylmethyl)-1,3,5-triazine-2,4,6-triamine] | 0.1 | prolonged the cumulative entry latency |  |
| COC(=O)C(c1ccccc1)C1CCCCN1 (stereo not shown) [Methylphenidate, methylphenidate, reference compound] |  | prolonged the cumulative entry latency | Minimum effective dose ([1]; subcutaneous (sc), smallest dose giving significantly longer cumulative entry latency than solvent group): 0.1(sc) mg/kg |
| C=C[C@H]1C[N@@]2CC[C@H]1C[C@@H]2[C@@H](O)c1ccnc2ccc(OC)cc12 [quinidine] |  |  | Inhibition of BEC1 potassium channels (BEC1 potassium channel [3]): do not inhibit |
| CC[N+](CC)(CC)CC [tetraethylammonium] |  |  | Inhibition of BEC1 potassium channels (BEC1 potassium channel [3]): do not inhibit |
